According to patent publication US20040063736A1, “Combination of active ingredients containing alfuzosine and apomorphine” (priority 2001, published 2004):

System: hypertensive rats (SHR)
Test: Erectile responses (number of erections, intracavernous pressure) in anaesthetised hypertensive rats
Conditions: for N animals with erections/N animals / Number of erections (mean ± sem): 30 min after infusion
[1] = Table 2, apomorphine 50 μg/kg alone
[2] = apomorphine 10 μg/kg s.c. + 5% glucose infusion
[3] = apomorphine 20 μg/kg s.c. + 5% glucose infusion
[4] = apomorphine 50 μg/kg s.c. + 5% glucose infusion
[5] = apomorphine 100 μg/kg s.c. + 5% glucose infusion
[6] = apomorphine 250 μg/kg s.c. + 5% glucose infusion
[7] = alfuzosine 3, 10 or 30 μg/kg alone (i.v. infusion)

## CN1CCc2cccc3c2[C@H]1Cc1ccc(O)c(O)c1-3 [Apomorphine]
[1]
  AUC: 640 ± 216 mmHg · sec
  Duration of erection: 105 ± 23 s
  n animal with erections/n animal: 9/9
  number of erections: 2.6 ± 0.4
  ΔICP: 29 ± 7 mmHg
[2]
  AUC: 0 mmHg · sec
  Duration: 0 s
  ΔICP: 0 mmHg
  N animals with erections/N animals: 0/8
  Number of erections (mean ± sem): 0
[3]
  AUC: 582 ± 172 mmHg · sec
  Duration: 61 ± 7 s
  ΔICP: 41.4 ± 13.9 mmHg
  N animals with erections/N animals: 5/10
  Number of erections (mean ± sem): 0.5000
[4]
  AUC: 640 ± 215 mmHg · sec
  Duration: 105 ± 23 s
  ΔICP: 29.3 ± 6.5 mmHg
  N animals with erections/N animals: 9/9
  Number of erections (mean ± sem): 2.5556
[5]
  AUC: 501 ± 193 mmHg · sec
  Duration: 71 ± 19 s
  ΔICP: 25.5 ± 8.2 mmHg
  N animals with erections/N animals: 9/9
  Number of erections (mean ± sem): 3.1111
[6]
  AUC: 1073 ± 237 mmHg · sec
  Duration: 71 ± 19 s
  ΔICP: 58.6 ± 9.7 mmHg
  N animals with erections/N animals: 6/6
  Number of erections (mean ± sem): 5.0000
Apomorphine 10-250 μg/kg s.c.
  erectile responses: induced concentration-dependent erectile responses
Apomorphine s.c.
  first dose triggering erections in some animals in comparison to the control group: 0.02 mg/kg
  first dose which induced at least one erectile event in all the animals: 0.05 mg/kg
Text b79, apomorphine 50 μg/kg alone
  number of erections: 2.6±0.4

## COc1cc2nc(N(C)CCCNC(=O)C3CCCO3)nc(N)c2cc1OC (stereo not shown) [Alfuzosine]
[7]
  AUC: 0 mmHg · sec
  Duration of erection: 0 s
  n animal with erections/n animal: 0/6
  number of erections: 0
  ΔICP: 0 mmHg
Alfuzosine 3 to 100 μg/kg i.v. after vehicle of apomorphine
  induction of erections per se: Neither 5% glucose nor alfuzosine (3 to 100 μg/kg i.v.) was able to induce per se erections
